Data reported in patent publication US20260262647A1, “Synergistic Compositions Containing Guanidine” (Thor GmbH, priority 2023, published 2026).

What was measured:
Type in all cases: cell-based
[1] = tested on: Pseudomonas putida DSM 115323; experiment: Minimum inhibitory concentrations and synergy index in Müller-Hinton broth
[2] = tested on: yeast mixture; experiment: All-purpose detergent inoculated once with yeast mixture, semiquantitative growth evaluation; parameters: key: 0: No growth; Minimal growth, 1 to 10 colonies visible over the entire streak; 2: Light growth, maximum 100 colonies; Moderate growth, maximum 300 to 400 colonies; Uniform growth, >400 colonies, single colonies still clearly recognizable; 5: Heavy growth, too many colonies to count, but no growth over the entire streak; 6: Full growth, barely any single colonies still apparent, growth over the entire streak; conditions: Example 38, all-purpose detergent, +8000 ppm guanidine hydrochloride (4944 ppm guanidine)
Text: In examples 35 to 38 below, synergistic interaction between guanidine and antimicrobial substances with respect to microbial infestation was studied using an emulsion paint and a laundry detergent or cleaning composition by adding particular amounts of guanidine salts and isothiazolinones and examining their stability against microbial infestation: […] The laundry detergent was a heavy-duty laundry detergent without preservatives (pH 8.1), and the cleaning composition was an all-purpose detergent without preservatives (pH 7.6), each likewise made in the laboratory, without addition of the otherwise usual conventional preservatives. To each paint was added—individually and in combination—particular concentrations of guanidinium hydrochloride, benzisothiazolinone (BIT), and a mixture of chloromethylisothiazolinone (CIT) and methylisothiazolinone (MIT). The laundry detergent and the cleaning composition were admixed with particular concentrations of guanidinium hydrochloride and benzisothiazolinone (BIT). The resultant batches of the paint thus prepared were inoculated with a mixture of different bacteria species (bacteria mixture B); the batches of the laundry detergent and cleaning compositions thus prepared were inoculated with a yeast mixture. • Pichia manshurica DSM 12249 • Rhodotorula mucilaginosa DSM 12248 • Candida boidinii DSM 13622 • Candida albicans DSM 1386 […] Further steps for establishment of a cell count of the inoculum suspension of 10^8/ml were effected analogously to the production of the bacteria suspension. […] The streaked agar plates were then incubated at 30° C. for 48 hours (bacteria) or at 25° C. for 72 hours (yeasts). After incubation, the bacterial or yeast colonies that have grown on the agar plates were visually evaluated and quantified according to the following scheme: [table]

[3] = tested on: bacteria mixture A; experiment: Emulsion paint inoculated three times with bacteria mixture A, live bacteria count CFU/g; conditions: for CFU/g after inoculation: emulsion paint, 7 d
Text: In example 34, the synergistic interaction between guanidine and a zinc compound (zinc oxide) with respect to microbial infestation was examined in an emulsion paint by adding particular amounts of guanidine in the form of guanidine hydrochloride and a zinc compound in the form of zinc oxide, and tested for stability to microbial infestation. The paint tested was an emulsion paint based on styrene-acrylate binder (PVK 77%, pH 8.8) for indoor use, produced in the laboratory, without addition of the usual preservatives.
The samples were inoculated repeatedly, three times in total, with a bacterial cell suspension of the following composition (2% v/w).
• Alcaligenes faecalis NCIMB 13145 • Escherichia coli DSM 13631 • Burkholderia cepacia DSM 9241 • Staphylococcus aureus DSM 799 • Pseudomonas aeruginosa DSM 50071 • Pseudomonas putida DSM 13624
The cell suspension of the bacteria mixture A was produced by growing the individual bacteria at 30° C. for 24 h in liquid culture on a shaker. The growth medium used for the bacteria was Müller-Hinton liquid medium. After growing, the individual liquid cultures were centrifuged, and the cells were resuspended in physiological saline solution. In order to adjust the mixture to a total cell count of 10^9/ml, the individual bacteria suspensions, if necessary, were diluted accordingly before being combined with saline solution. The cell count of the inoculum was determined in each case by chamber counting.
After each inoculation and after incubation at 30° C. for 7 days, microbial infestation was evaluated in the samples by determining the live bacteria count per g of paint (colony-forming units, CFU/g). The CFU/g was determined each time by taking an aliquot (1 g) from the previously homogenized sample and running a serial decadic dilution series in physiological saline solution (0.9% NaCl) by streaking on tryptic soy agar, followed by incubation of the agar plates at 30° C. for 48 h.

`N=C(N)N` [guanidine] was tested, and the “QA: Concentration of guanidine as the sole agent that shows an endpoint” value ([1]; guanidine (added as guanidine hydrochloride) alone, 48 hours at 30° C.) was 6180 ppm, the “Synergy index Qa/QA + Qb/QB” value ([1]; guanidine and CIT, Qa, Qb) was 1.00 and the Yeast growth ([2]; Day 1) was 6. For the same molecule, the Yeast growth ([2]; Day 3) was 4 (Uniform growth, >400 colonies, single colonies still clearly recognizable), the CFU/g after inoculation ([3]; Guanidine hydrochloride 1000 ppm (618 ppm guanidine), 1. inoculation) was 8.7 × 10^5 CFU/g and the CFU/g after inoculation ([3]; Guanidine hydrochloride 1000 ppm (618 ppm guanidine), 2. inoculation) was >10^6 CFU/g. The CFU/g after inoculation ([3]; Guanidine hydrochloride 1000 ppm (618 ppm guanidine), 3. inoculation) was >10^6 CFU/g, the CFU/g after inoculation ([3]; Guanidine hydrochloride 2500 ppm (1545 ppm guanidine), 1. inoculation) was less than 100 CFU/g and the CFU/g after inoculation ([3]; Guanidine hydrochloride 2500 ppm (1545 ppm guanidine), 2. inoculation) was less than 100 CFU/g. The CFU/g after inoculation ([3]; Guanidine hydrochloride 2500 ppm (1545 ppm guanidine), 3. inoculation) was >10^6 CFU/g, the CFU/g after inoculation ([3]; Guanidine hydrochloride 5000 ppm (3090 ppm guanidine), 1. inoculation) was less than 100 CFU/g and the CFU/g after inoculation ([3]; Guanidine hydrochloride 5000 ppm (3090 ppm guanidine), 2. inoculation) was less than 100 CFU/g. For the same molecule, the CFU/g after inoculation ([3]; Guanidine hydrochloride 5000 ppm (3090 ppm guanidine), 3. inoculation) was less than 100 CFU/g, the “QA: Concentration of guanidine as the sole agent that shows an endpoint” value ([3]; guanidine alone in emulsion paint, endpoint after 3 inoculations up to a maximum of 1000 CFU/g) was 3090 ppm and the “Synergy index Qa/QA + Qb/QB” value ([3]; guanidine and zinc in emulsion paint, Qa, Qb) was 1.00.
